Source: patent US10639382B2, “Method for treating leukemia” (National Guard Health Affairs, priority 2017, dated 2020)
Counter-ions that a name gives are not always drawn. Starred links: 1 amine or outer side, 2 acyl side, 3 side chain; linkers in the order of their positions; H or OH if unused. Positions of bridges follow the written chain, without caps; N, C: chain ends. Non-standard residues stand in square brackets, D forms with d. Residues, ends and D or L forms follow the SMILES beside them. Chains are numbered I, II in the order given. Actinocin(9to1) = Cc1c2oc3c(C)ccc(C(=O)[*:1])c3nc-2c(C(=O)[*:2])c(N)c1=O; NMeV = CN[C@H](C(=O)O)C(C)C; Sar = CNCC(=O)O

Tests used:
PBMC from CLL patients = assay: Confirmation of positive hits, dose-response TiterGlo growth inhibition, PBMC from CLL patients versus healthy controls
Procedure: (§1) Each compound from the ENZO FDA SCREEN-WELL® FDA approved drug library V2 (0.10 μl in 100% DMSO) was transferred to white, 384-well, PS, Cellstar plates (Greiner Bio-One) using the Echo® Liquid Handler (Labcyte Inc.). Each plate contained one column for the High/Low Controls. The Low Control (1% DMSO v/v in column 23, no cells) and the High Control (final 1% DMSO v/v in column 24, with cells) were employed to calculate the Z′ for each assay plate. […] At 24 h post seeding, baseline growth was assessed using a control plate and CellTiter-Glo (CTG) reagent (Promega Corporation). Briefly, 20 μL/well of CTG detection mix was added and plates were read using an EnVision Multimode plate reader (PerkinElmer) after 10 min incubation in the dark. The raw luminescence signal was normalized in ActivityBase XE with outliers in control wells eliminated according to the 3-sigma method to yield percentage of cell viability by using the High Control (HC) containing cells in 1% DMSO v/v (Carl Roth) and the Low Control containing 1% DMSO v/v (Carl Roth). All Medium-Throughput Screening experiments were performed in duplicate for each patient. […] The raw luminescence signal was processed using Graph Pad Prism (Graph Pad Software Inc.) with outliers in control wells eliminated according to the 3-sigma method. The dose-response curves were analyzed using a 4 parameter sigmoidal fit to obtain plausible results in the case non-sigmoidal dose-response curves.
Compound plates were prepared from the same stock used in the original screening and each compound was tested at 16 concentration point with 100 uM being the highest concentration and the dilution factor was ⅓ between two points.
The TitreGlo was performed as described and the curve for growth inhibition was plotted using activity base to calculate the EC50.

PBMC from CML patients = assay: Confirmation of positive hits, dose-response TiterGlo growth inhibition, PBMC from CML patients versus healthy controls; assay type: cell-based, human; conditions: freshly prepared stock from solid, 24 hr incubation
Procedure: FIG. 2A depicts data of isoproterenol inducing cell death preferentially in chronic myelogenous leukemia (CML) patients' primary PBMC as compared to PBMC from healthy individuals (Control, CTL) when incubated with different concentrations of isoproterenol prepared from liquid stock. FIG. 2B depicts data of isoproterenol inducing cell death preferentially in chronic myelogenous leukemia (CML) patients' primary PBMC as compared to PBMC from healthy individuals (Control, CTL) when incubated with different concentrations of isoproterenol prepared from a solid.

PBMCs from CML patients = assay: Primary screening of FDA approved drug library, TitreGlo/CellTiter-Glo cell viability, PBMCs from CML patients; assay type: cell-based, human; conditions: compound 10 uM, PBMCs from CML patients, average over patients, relative to high control (0%) and no-cell low control (100%); for inhibition at 10 µM: Homo sapiens, PBMC, read-out: % Inhibition, CML Average
Procedure: (§2) Whole blood was taken from experimental group patients and control group patients. The collected blood was transferred to EDTA tubes with a 5 mL pipette and a pipette aid and then to each EDTA tubes corresponding 50 ml centrifuge tubes. All the blood from one patient was placed into 1 tube (50 mL) and an equal volume of PBS was added to the 50 mL centrifuge tube. The sample was then mixed by either inverting the tube or pipetting up & down. The blood was transferred into tow 50 mL leucosep tube and centrifuged at room temperature (18-20° C.) for 15 minutes at 800×g with the brake turned off and acceleration at 2/deceleration at zero. After centrifugation, the white cell interface (buffy coat) was removed by pasture pipette and transferred to the new appropriately labelled 50 ml centrifuge tube. 25 mL PBS was added to the white cell interface (buffy coat) and the mix was centrifuged for 10 minutes at room temperature at 400×g with the brake off and acceleration at 4 & deceleration at 2. The supernatant was discarded from the pellet carefully in an appropriate manner. The pellet was washed another time with 20 mL by centrifugation for 5 minutes as above. The pellet was re-suspended in 5 mL and cells were counted using V-Cell. The cells were then either used directly as fresh for screening or frozen in liquid nitrogen in 10% DMSO/RPMPI media until use.
(§3) The assay used for TitreGlo (Promega) to measure cell viability based on the ATP production. […] The assay was developed in a 384-well plate with 2500 cell/well in 50 uL total volume. Alternatively, the assay could be developed in a 96-well plate with 10,000 cells/well. […] Z′ as a statistics factor was calculated as follows:
as §1
(§4) Each average patient samples were plotted against average of the control samples to identify the positive hits.
Samples from 4 patients were screened against the FDA approved drug library where the Negative Control (High control) contained cells treated with DMSO and the Positive Control (Low control) were based using no cells. The screening was carried out in 96 well plates. The raw luminescence counts were normalized and the % Inhibition was calculated relative to the high control (0% Inhibition) and the low control (100% Inhibition).

PBMCs from ALL patients = assay: Primary screening of FDA approved drug library, TitreGlo/CellTiter-Glo cell viability, PBMCs from ALL patients; assay type: cell-based, human; conditions: compound 10 uM, PBMCs from ALL patients, average over patients, relative to high control (0%) and no-cell low control (100%); for inhibition at 10 µM: Homo sapiens, PBMC, read-out: % Inhibition, ALL Average
Procedure: as §2, §3, §1
(§5) The Screen-Well FDA approved drug library was screened, which contains 780 approved drugs. […] The final DMSO concentration in the assay plate was 0.1% of total volume. […] The average of all four control samples was then calculated and used to determine the positive “hits” in patients' samples.
as §4

PBMCs from CLL patients = assay: Primary screening of FDA approved drug library, TitreGlo/CellTiter-Glo cell viability, PBMCs from CLL patients; assay type: cell-based, human; conditions: compound 10 uM, PBMCs from CLL patients, average over patients, relative to high control (0%) and no-cell low control (100%); for inhibition at 10 µM: Homo sapiens, PBMC, read-out: % Inhibition, CLL Average
Procedure: as §2, §3, §1, §5, §4

PBMCs from AML patients = assay: Primary screening of FDA approved drug library, TitreGlo/CellTiter-Glo cell viability, PBMCs from AML patients; assay type: cell-based, human; conditions: compound 10 uM, PBMCs from AML patients, average over patients, relative to high control (0%) and no-cell low control (100%); for inhibition at 10 µM: Homo sapiens, PBMC, read-out: % Inhibition, AML Average
Procedure: as §2, §3, §1, §5, §4

SMILES | inhibition at 10 µM (PBMCs from CML patients) | inhibition at 10 µM (PBMCs from ALL patients) | inhibition at 10 µM (PBMCs from CLL patients) | inhibition at 10 µM (PBMCs from AML patients) | other results
C[C@](N)(Cc1ccc(O)c(O)c1)C(=O)O [Methyldopa] | – | – | – | – | Effect on CLL PBMC compared to control cells (PBMC from CLL patients; dose-response, FIG. 3): show an effect on CLL PBMC better than control cell
CC(C)NCC(O)c1ccc(O)c(O)c1 (racemic) [(±) Isoproterenol HCl] | 65.3% | 61.7% | 39.9% | – | EC50 of growth inhibition, times higher in control PBMC compared to PBMC from CLL patients (PBMC from CLL patients; freshly prepared stock from solid, 24 hr incubation, TiterGlo): 4.8 times; EC50 of growth inhibition, times higher in control PBMC compared to PBMC from CML patients (PBMC from CML patients): 4.4 times
Cc1c2oc3c(C)ccc(C(=O)N[C@@H]4C(=O)N[C@H](C(C)C)C(=O)N5CCC[C@H]5C(=O)N(C)CC(=O)N(C)[C@@H](C(C)C)C(=O)O[C@@H]4C)c3nc-2c(C(=O)N[C@@H]2C(=O)N[C@H](C(C)C)C(=O)N3CCC[C@H]3C(=O)N(C)CC(=O)N(C)[C@@H](C(C)C)C(=O)O[C@@H]2C)c(N)c1=O [Dactinomycin (=Actinomycin D), Dactinomycin] (I: T[dV]P[Sar][NMeV] / II: T[dV]P[Sar][NMeV]; ester I:1-I:C, II:1-II:C; linker I:N-II:N via Actinocin(9to1)) | 24.4% | 66.5% | 42.9% | 60.4% | –
N[C@@H](Cc1ccc(N(CCCl)CCCl)cc1)C(=O)O [Melphalan] | 32.5% | 92.9% | 69.6% | 42.1% | –
CC(C)(C)NC[C@H](O)COc1cccc2c1CCCC2=O [Levobunolol HCl] | -32.1% | -8% | 49.6% | 1.8% | –
COc1cc(NC(C)CCCN)c2ncccc2c1 (stereo not shown) [Primaquine Phosphate] | 40.9% | 54.9% | 16.9% | 19.8% | –
CC(=O)OC[C@H]1O[C@@H]([S-])[C@H](OC(C)=O)[C@@H](OC(C)=O)[C@@H]1OC(C)=O.CCP(CC)CC.[Au+] [Auranofin] | – | – | – | – | % Inhibition, CML Average (PBMCs from CML patients): 94.9%; % Inhibition, ALL Average (PBMCs from ALL patients): 102.9%; % Inhibition, AML Average (PBMCs from AML patients): 96.7%; % Inhibition, CLL Average (PBMCs from CLL patients): 96.0%
OC(c1cc(C(F)(F)F)nc2c(C(F)(F)F)cccc12)C1CCCCN1 (stereo not shown) [Mefloquine HCl] | 90.4% | 87.7% | 50.5% | 72.7% | –
CN1CCc2cccc3c2[C@H]1Cc1ccc(O)c(O)c1-3 [Apomorphine HCl Hemihydrate] | 89.4% | 37.3% | 27.9% | 39.5% | –
Cc1cc2c(s1)Nc1ccccc1N=C2N1CCN(C)CC1 [Olanzapine] | 79.5% | 71.8% | -26.5% | 1.8% | Induction of cell death in PBMC from CLL patients compared to control cells (PBMC from CLL patients; fresh primary cells, FIG. 4A-4D): shown to induce cell death in PBMC from CLL patients compared to control cells; Effect on PBMC when primary cells are tested after freezing (PBMC from CLL patients; primary cells tested after freezing): the effect is not observed
CCCCCCCCc1ccc(CCC(N)(CO)CO)cc1 [Fingolimod] | 76.1% | 58.9% | 47.9% | 81.5% | –
COc1cccc2c1C(=O)c1c(O)c3c(c(O)c1C2=O)C[C@@](O)(C(=O)CO)C[C@@H]3O[C@H]1C[C@H](N)[C@@H](O)[C@H](C)O1 [Epirubicin HCl] | 5% | 74.4% | 64.3% | 67.1% | –
COc1cccc2c1C(=O)c1c(O)c3c(c(O)c1C2=O)C[C@@](O)(C(=O)CO)C[C@@H]3O[C@H]1C[C@H](N)[C@H](O)[C@H](C)O1 [Doxorubicin HCl] | 36.7% | 72.6% | 67.2% | 73.6% | –
CO[C@H]1/C=C/O[C@@]2(C)Oc3c(C)c(O)c4c(O)c(c5c(nc6cc(C)ccn65)c4c3C2=O)NC(=O)/C(C)=C\C=C\[C@H](C)[C@H](O)[C@@H](C)[C@@H](O)[C@@H](C)[C@H](OC(C)=O)[C@@H]1C [Rifaximin] | 42.3% | -45.4% | -60.2% | -42.8% | –
NS(=O)(=O)c1cc(C(=O)O)c(NCc2ccco2)cc1Cl [Furosemide] | -38.4% | -31.3% | 50.3% | -39% | –
O=C(NCC1CCCCN1)c1cc(OCC(F)(F)F)ccc1OCC(F)(F)F (stereo not shown) [Flecainide Acetate] | -1% | -18.3% | 50.2% | 13% | –
